Assay [1] relates to T2 seeds of transgenic rice (T0 plants No. 26 and 29). Nature of the assay: Seed germination test on imazethapyr. The following applies: 5 μM imazethapyr, 1 month treatment. The format is in vivo. How it is done:
(§1) Three tests were performed to evaluate herbicide resistance of T2 progeny of transgenic rice. T2 progeny were first evaluated by a seed germination test followed by the greenhouse spray test and PCR analysis. As a prelude to testing the transgenic plants, an experiment was conducted to germinate untransformed rice seeds at imazethapyr concentrations ranging from 0.1 to 10 μM. […] The greenhouse spray test and PCR analysis were used to further confirm the results of the seed germination test with consistent identification of lines as resistant homozygous, susceptible homozygous or segregating hemizygous.
(§2) T2 seeds harvested from individual T1 plants were sterilized in 50% Clorox® bleach (2.3% sodium hyperchlorite) for 30 min followed by a thorough rinse with autoclaved water and pre-germinated in water for 2-3 days. Thirty to 35 pre-germinated seeds were transferred to the surface of folded paper towels placed perpendicular to the bottom of a Magenta box (Sigma, St. Louis, Mo.) to which 20 ml of H2O containing 5 μM imazethapyr (AC263,499, tech grade) was added. The seedlings were grown under 12 hr light at 26° C. for about a month. Seedlings that survived the imazethapyr treatment were scored as resistant and those that died as susceptible. 5.0 μM imazethapyr, equivalent to 5 times the threshold, was used for subsequent seed germination tests of the T2 generation. T2 seeds harvested from 16 T1 lines derived from T0 plant No. 26 and those from 15 T1 lines derived from T0 plant No. 29 were screened in the seed germination tests.

Assay [2] has as its system untransformed rice seeds. As to the kind of experiment: Seed germination test on imazethapyr. In kind it is in vivo. As to the method: as §1, §2
Assay [3] relates to T1 corn plants of 1B1 (self and B73×1B1). As to the kind of experiment: Spray test of T1 progeny of transgenic corn plant 1B1. The format is in vivo. The following applies: 4× (250 ai g/ha) at 3-leaf stage; 6 self and 8 B73×1B1 T1 plants. As to the method: Transgenic corn plants were evaluated in the greenhouse for resistant levels to various imidazolinone herbicides and inheritance of the transgene. For corn, our protocol involved self- or cross-pollinating the transgenic plants for 2 to 3 generations and spraying T1 progeny plants to identify the resistant vs. susceptible plants. Detailed analysis for levels of herbicide resistance and the inheritance pattern. Identification of lines homozygous for the transgene is carried out in T2 generation with self-pollination and cross-pollination derived progeny plants. […] B73 and Mo17 lines were obtained USDA/ARS and Crop Sciences, UIUC, Urbana, Ill. 61801-4798. T1 plants were treated with 4×PURSUIT® imazethapyr (250 ai g/ha) at 3-leaf stage and rated as either resistant or susceptible to the herbicide. A total of 6 self and 8 B73×1B1 T1 plants were sprayed and all survived the herbicide treatments.

Assay [4] has as its system immature embryos of transgenic homozygous T2 plants (26-4). As to the kind of experiment: In vitro callus induction and growth from immature embryos on imazethapyr. The format is cell-based, rice. As to the method: (§3) Immature embryos (12-14 days after fertilization) were dissected from transgenic homozygous T2 plants, identified as 26-4 in FIG. 1, or seed-grown Nortai plants and placed in N6 basal medium (Chiu et al., Sci. Sin 18:659-68, 1975) supplemented with 2 mg/l 2,4-D, 3% sucrose, 0.6% agarose (3SN6d2) amended with 0, 0.01, 0.033, 0.1, 0.3, 1.0, 3.3, 10, 25, or 50 μM imazethapyr (AC263,499). Five embryos were placed on one 10×60 mm Petri dish with two to three plates for each concentration as replications. Three weeks later, in vitro cellular response was monitored by measuring the fresh weight of callus derived from individual embryos.

In assay [5] the test system is immature embryos of Nortai plants (control). The description is as above. In kind it is cell-based, rice. How it is done: as §3

In the case of `CCc1cnc(C2=NC(C)(C(C)C)C(=O)N2)c(C(=O)O)c1` (stereo not shown) [PURSUIT ®, imazethapyr], the “fate of resistant transgenic plants” value in assay [1] was “survived and continued to grow”. In addition, in assay [2] (5 μM imazethapyr, 1 month treatment), the “fate of control seeds” value is “all control seeds died”. Also, the “concentration at which untransformed seeds were completely inhibited” value in assay [2] (germination at 0.1 to 10 μM) worked out at 1 µM. Further, the “survival of T1 plants” value in assay [3] is recorded as “all survived”. Further, in assay [4] (transgenic embryos), the “concentration up to which callus induction and growth were normal” value is listed as “up to 1 μM”; the “concentration with no callus induction” value is 10 µM. In assay [4] (transgenic embryos, 3.3 μM), the reduction in growth entry is given as “about 50%”. Moreover, the “increase in resistance to imazethapyr in vitro” value in assay [4] (transgenic vs untransformed, immature embryos (also suspension cells / cell lines)) was 100 fold. Further, in assay [5] (0.03 μM), the “growth (reduced to) on imazethapyr” value was “less than 50%”. In assay [5] (3 weeks), the “concentration at which callus induction was totally inhibited” value was 0.1 µM.

Values taken from patent US6653529B2, “Use of the maize X112 mutant ahas 2 gene and imidazolinone herbicides for selection of transgenic monocots, maize, rice and wheat plants resistant to the imidazolinone herbicides” (BASF Aktiengesellschaft, priority 2000, dated 2003).
